Data as given in the supplement of paper PMC10307832.

Compound: CCCS(=O)(=O)Nc1ccc(F)c(C(=O)c2c[nH]c3ncc(-c4ccc(Cl)cc4)cc23)c1F [Vemurafenib] + Nc1ncn([C@H]2C[C@H](O)[C@@H](CO)O2)c(=O)n1 [Decitabine] (partner 2 µM)
Assay: relative viability (nuclei count vs DMSO), 5 days (fraction); higher = more cells survive
Conditions: first compound 0.03162 µM
Procedure, shortened: (§1)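 For relative viability, nuclei counts in treated wells were divided by those in vehicle wells. Lung cancer cell lines had been pin-tool dosed in 1536-well plates the day after seeding and cultured for 5 days, then fixed and stained in one step (final 0.05% Triton X-100, 1% formaldehyde, 1 ug/ml Hoechst) and imaged at 4×. Doses were one drug alone or a fixed anchor-drug dose plus five library-drug doses (not always all listed) in √10 steps, and values are duplicate-plate medians.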

Cell Line | relative viability
BEN | 0.577
LOU-NH91 | 0.74
NCI-H661 | 0.521
NCI-H1651 | 0.532
SW 1573 | 0.386
LK-2 | 0.243
ABC-1 | 1.01
LCLC-103H | 0.698
NCI-H522 | 0.668
NCI-H358 | 0.211
A549 | 0.163
NCI-H650 | 0.311
NCI-H596 | 0.974
SW 900 | 0.428

Same assay, conditions: first compound 0.1 µM

Cell Line | relative viability
NCI-H2126 | 0.542
EPLC-272H | 0.367
NCI-H1755 | 0.616
NCI-H2023 | 0.224
NCI-H1650 | 0.499
NCI-H1793 | 0.325
NCI-H2342 | 0.702
NCI-H1975 | 0.418
NCI-H1437 | 0.565
HOP-62 | 0.202
HCC-44 | 1.02
BEN | 0.756
LOU-NH91 | 0.638
NCI-H661 | 0.495
NCI-H1651 | 0.633
SW 1573 | 0.442
LK-2 | 0.342
NCI-H1648 | 0.351
ABC-1 | 1.13
LCLC-103H | 0.714
NCI-H522 | 0.607
NCI-H358 | 0.228
A549 | 0.227
NCI-H650 | 0.334
NCI-H596 | 0.959
SW 900 | 0.346

Same assay, conditions: first compound 0.3162 µM

Cell Line | relative viability
NCI-H2126 | 0.599
EPLC-272H | 0.472
NCI-H1755 | 0.73
NCI-H2023 | 0.257
NCI-H1650 | 0.413
NCI-H1793 | 0.672
NCI-H2342 | 0.773
H3255 | 0.604
NCI-H1975 | 0.345
PC-14 | 0.181
NCI-H1437 | 0.531
HOP-62 | 0.216
HCC-44 | 0.949
BEN | 0.366
LOU-NH91 | 0.703
NCI-H661 | 0.567
NCI-H1651 | 0.494
PC-3 [JPC-3] | 0.81
SW 1573 | 0.484
LK-2 | 0.321
NCI-H1648 | 0.762
ABC-1 | 0.967
LCLC-103H | 0.717
NCI-H522 | 0.624
NCI-H358 | 0.226
A549 | 0.155
NCI-H650 | 0.308
NCI-H596 | 0.922
SW 900 | 0.439

Same assay, conditions: first compound 1 µM

Cell Line | relative viability
NCI-H2126 | 0.552
EPLC-272H | 0.399
NCI-H1755 | 0.711
NCI-H2023 | 0.246
NCI-H1650 | 0.461
NCI-H1793 | 0.492
NCI-H2342 | 0.706
H3255 | 0.605
NCI-H1975 | 0.32
PC-14 | 0.237
NCI-H1437 | 0.579
HOP-62 | 0.2
HCC-44 | 1
BEN | 0.675
LOU-NH91 | 0.863
NCI-H661 | 0.625
NCI-H1651 | 0.621
PC-3 [JPC-3] | 0.888
SW 1573 | 0.452
LK-2 | 0.254
NCI-H1648 | 0.463
ABC-1 | 0.977
LCLC-103H | 0.75
NCI-H522 | 0.692
NCI-H358 | 0.229
A549 | 0.224
NCI-H650 | 0.33
NCI-H596 | 0.864
SW 900 | 0.466

Compound: COc1cccc2cc(-c3nc([C@H]4CC[C@H](C(=O)O)CC4)n4ncnc(N)c34)[nH]c12 [OSI-027] + N=C(N)NC(=N)NCCc1ccccc1 [Phenformin] (partner 250 µM)
Assay: as above
Conditions: first compound 0.01 µM
Procedure, shortened: as §1

Cell Line | relative viability
NCI-H2126 | 0.527
EPLC-272H | 0.309
NCI-H1755 | 0.615
NCI-H2023 | 0.452
NCI-H1623 | 0.583
NCI-H1650 | 0.37
NCI-H1793 | 0.365
NCI-H2342 | 0.524
H3255 | 0.308
NCI-H1975 | 0.435
PC-14 | 0.582
NCI-H1437 | 0.31
HOP-62 | 0.648
HCC-44 | 0.16
BEN | 0.248
LOU-NH91 | 0.699

Cell Line | relative viability
NCI-H661 | 0.263
NCI-H1651 | 0.364
PC-3 [JPC-3] | 0.482
SW 1573 | 0.406
LK-2 | 0.437
ABC-1 | 0.237
LCLC-103H | 0.348
NCI-H522 | 0.72
NCI-H1563 | 0.674
NCI-H358 | 0.309
CAL-12T | 0.584
NCI-H2228 | 0.305
A549 | 0.176
NCI-H650 | 0.424
NCI-H596 | 0.875

Same assay, conditions: first compound 0.03162 µM

Cell Line | relative viability
NCI-H2126 | 0.555
EPLC-272H | 0.258
NCI-H1755 | 0.696
NCI-H2023 | 0.367
NCI-H1623 | 0.603
NCI-H1650 | 0.366
NCI-H1793 | 0.367
NCI-H2342 | 0.533
H3255 | 0.359
NCI-H1975 | 0.412
PC-14 | 0.466
NCI-H1437 | 0.292
HOP-62 | 0.565
HCC-44 | 0.229
BEN | 0.27
LOU-NH91 | 0.679

Cell Line | relative viability
NCI-H661 | 0.286
NCI-H1651 | 0.285
PC-3 [JPC-3] | 0.465
SW 1573 | 0.286
LK-2 | 0.344
ABC-1 | 0.244
LCLC-103H | 0.337
NCI-H522 | 0.57
NCI-H1563 | 0.647
NCI-H358 | 0.301
CAL-12T | 0.644
NCI-H2228 | 0.324
A549 | 0.154
NCI-H650 | 0.487
NCI-H596 | 0.576
SW 900 | 0.45

Same assay, conditions: first compound 0.1 µM

Cell Line | relative viability
NCI-H2126 | 0.437
EPLC-272H | 0.3
NCI-H1755 | 0.594
NCI-H2023 | 0.397
NCI-H1623 | 0.485
NCI-H1650 | 0.444
NCI-H1793 | 0.306
NCI-H2342 | 0.564
H3255 | 0.31
NCI-H1975 | 0.379
PC-14 | 0.488
NCI-H1437 | 0.296
HOP-62 | 0.716
HCC-44 | 0.127
BEN | 0.288
LOU-NH91 | 0.504

Cell Line | relative viability
NCI-H661 | 0.254
NCI-H1651 | 0.299
PC-3 [JPC-3] | 0.49
SW 1573 | 0.343
LK-2 | 0.328
ABC-1 | 0.236
LCLC-103H | 0.36
NCI-H522 | 0.583
NCI-H1563 | 0.618
NCI-H358 | 0.311
CAL-12T | 0.512
NCI-H2228 | 0.307
A549 | 0.122
NCI-H650 | 0.394
NCI-H596 | 0.844
SW 900 | 0.633

Same assay, conditions: first compound 0.3162 µM

Cell Line | relative viability
NCI-H2126 | 0.405
EPLC-272H | 0.276
NCI-H1755 | 0.569
NCI-H2023 | 0.301
NCI-H1623 | 0.424
NCI-H1650 | 0.378
NCI-H1793 | 0.297
NCI-H2342 | 0.481
H3255 | 0.349
NCI-H1975 | 0.363
PC-14 | 0.392
NCI-H1437 | 0.286
HOP-62 | 0.77
HCC-44 | 0.158
BEN | 0.244
LOU-NH91 | 0.548

Cell Line | relative viability
NCI-H661 | 0.258
NCI-H1651 | 0.256
PC-3 [JPC-3] | 0.449
SW 1573 | 0.312
LK-2 | 0.155
ABC-1 | 0.2
LCLC-103H | 0.284
NCI-H522 | 0.506
NCI-H1563 | 0.681
NCI-H358 | 0.334
CAL-12T | 0.618
NCI-H2228 | 0.251
A549 | 0.171
NCI-H650 | 0.417
NCI-H596 | 0.865
SW 900 | 0.474

Same assay, conditions: first compound 1 µM

Cell Line | relative viability
NCI-H2126 | 0.404
EPLC-272H | 0.211
NCI-H1755 | 0.451
NCI-H2023 | 0.213
NCI-H1623 | 0.32
NCI-H1650 | 0.253
NCI-H1793 | 0.184
NCI-H2342 | 0.445
H3255 | 0.407
NCI-H1975 | 0.298
PC-14 | 0.276
NCI-H1437 | 0.211
HOP-62 | 0.388
HCC-44 | 0.12
BEN | 0.232
LOU-NH91 | 0.411

Cell Line | relative viability
NCI-H661 | 0.245
NCI-H1651 | 0.25
PC-3 [JPC-3] | 0.433
SW 1573 | 0.191
LK-2 | 0.275
ABC-1 | 0.197
LCLC-103H | 0.272
NCI-H522 | 0.508
NCI-H1563 | 0.589
NCI-H358 | 0.283
CAL-12T | 0.355
NCI-H2228 | 0.198
A549 | 0.0806
NCI-H650 | 0.285
NCI-H596 | 0.614
SW 900 | 0.347
